Among the test systems are XF498; HOP-18; DMS-114; KM-20L2; RXF 631; DMS-273; BT-549; Hs-578T; MDA-N.
Holding throughout (assay): growth of human tumour cells (NCI), 48 h

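A five-concentration, 48-hour dose response in 96-well plates underlies each endpoint, interpolated linearly between surrounding concentrations. Here, GI50 denotes the concentration required for 50% inhibition of growth.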 Activity calls are given as the source filed them. No stated cut-off is given here; in the data, active = GI50 up to about 1.1 µM and inactive = higher. Non-standard residues stand in square brackets, D forms with d. Residues, ends and D or L forms follow the SMILES beside them. ξ: configuration not given here. *: point of attachment. ξNMeF = CNC(Cc1ccccc1)C(=O)O; NMeV = CN[C@H](C(=O)O)C(C)C; Boc = CC(C)(C)OC(=O)*; OBn = c1ccc(CO*)cc1

`CN1C(=O)CC2(C)c3cc(C=O)ccc3N(C)C12` (centres undefined): the GI50 with XF498, with HOP-18, with DMS-114, in the experiment on KM-20L2 and with RXF 631 was > 100 µM (inactive) in each case.

For the compound `Nc1nc(=O)[nH]c2c1cnn2Cc1ccccc1`, the GI50 is > 100 µM (inactive) in the experiment on XF498; > 100 µM (inactive) with DMS-273; > 100 µM (inactive) in the experiment with HOP-18; > 100 µM (inactive) in the experiment with DMS-114; 1.62 µM (inactive) in the experiment with KM-20L2; > 100 µM (inactive) in the experiment on RXF 631.

With `CC(C)(C)NNC(=O)/C(=C/c1ccc(Oc2ccc(Cl)c(Cl)c2)cc1)NC(=O)c1ccccc1`, the GI50 is > 100 µM (inactive) in the experiment with XF498; 21.5 µM (inactive) in the experiment on DMS-273; > 100 µM (inactive) in the experiment with HOP-18; 18.5 µM (inactive) in the experiment with DMS-114; 95.3 µM (inactive) in the experiment with KM-20L2; 34 µM (inactive) in the experiment on RXF 631.

For `COC(=O)C1CCC(N2C(=O)CCC2C(=O)OC)=N1` (centres undefined), the GI50 in the experiment on XF498, with DMS-273, in the experiment with HOP-18, with KM-20L2 and in the experiment with RXF 631 was > 100 µM (inactive) each time.

With `COC1CCC2C(NS(=O)(=O)c3ccc(C)cc3)CCCC2O1.Cc1ccc(S(=O)(=O)NC(C)(C)C=O)cc1` (centres undefined), the GI50 was 8.41 µM (inactive) in the experiment on DMS-273, 9.31 µM (inactive) in the experiment with DMS-114, 32.6 µM (inactive) in the experiment with KM-20L2 and 10.2 µM (inactive) in the experiment on RXF 631.

On to `CC(=O)OCC1OC(n2c(-c3ccc(C)cc3)cc(-c3ccccc3)c(C#N)c2=O)C(OC(C)=O)C(OC(C)=O)C1OC(C)=O` (centres undefined), for which the GI50 in the experiment with XF498 was 86.9 µM (inactive); in the experiment on DMS-114 it was > 100 µM (inactive); in the experiment on KM-20L2, > 100 µM (inactive); with RXF 631 it was > 100 µM (inactive).

Regarding `Brc1ccc2c(c1)C1C(CO2)C(c2ccccc2)=NN1c1ccccc1` (centres undefined), the GI50 was > 100 µM (inactive) with XF498; > 100 µM (inactive) in the experiment on DMS-273; 60 µM (inactive) in the experiment on HOP-18; > 100 µM (inactive) with DMS-114; > 100 µM (inactive) in the experiment on KM-20L2.

Take `COC1OCC(O)C(NC(=O)N(C)N=O)C1O` (centres undefined): the GI50 in the experiment on XF498, in the experiment with DMS-273, with HOP-18, in the experiment with DMS-114 and in the experiment with KM-20L2 was > 100 µM (inactive) each time.

As to `CN1Nc2ccccc2CC1=O`, the GI50 in the experiment with XF498, in the experiment with DMS-273, with HOP-18, in the experiment with DMS-114 and with KM-20L2 was > 100 µM (inactive) in each case.

On to `COP(=O)(OC)C(=O)N1N(c2ccc([N+](=O)[O-])cc2)C(=O)C(C)NC1(NNc1ccc([N+](=O)[O-])cc1)P(=O)(OC)OC` (centres undefined), for which the GI50 with XF498, in the experiment on DMS-273, with DMS-114 and in the experiment on KM-20L2 was > 100 µM (inactive) in each case.

`O=C(N/N=C/c1ccccc1O)N/N=C/c1ccccc1O`: the GI50 in the experiment on XF498, in the experiment on DMS-273, in the experiment with HOP-18, in the experiment on DMS-114, in the experiment with KM-20L2 and in the experiment with RXF 631 was > 100 µM (inactive) each time.

`Cc1ccc(-c2cc(=O)c3cc(C)c(C)c(C(=O)O)c3o2)cc1C`: the GI50 in the experiment with DMS-273, with HOP-18, in the experiment on DMS-114, with KM-20L2 and in the experiment on RXF 631 was > 100 µM (inactive) each time.

For `O=C(N/C(=C\c1ccccc1Cl)c1nc2ccccc2[nH]1)c1ccccc1`, the GI50 was 23.8 µM (inactive) in the experiment with XF498, 35 µM (inactive) with DMS-114, 22.8 µM (inactive) in the experiment on KM-20L2 and 26.5 µM (inactive) with RXF 631.

As for `O=c1cc(/C=C/c2ccccc2)c2ccc(O/C(=C\c3ccccc3)c3nc4ccccc4c(=O)o3)cc2o1`, the GI50 in the experiment on XF498 is 14.9 µM (inactive); in the experiment on DMS-273 it was 23 µM (inactive); in the experiment on DMS-114, 15.1 µM (inactive); with KM-20L2 it was 31.5 µM (inactive); in the experiment with RXF 631, 28.1 µM (inactive).

Consider `CC1=C(/C=C/C(C)=C/C=C/C(C)=C/C=C/C=C(C)/C=C/C=C(C)/C=C/C=C(C)/C=C/C=C(\C)C(=O)O)C(C)(C)CCC1`, for which the GI50 in the experiment on DMS-273 is > 100 µM (inactive); in the experiment with HOP-18 it was < 0.01 µM (active); in the experiment on DMS-114, > 100 µM (inactive); in the experiment on KM-20L2, > 100 µM (inactive); in the experiment on RXF 631, > 100 µM (inactive).

For `COC(=O)C(=O)C(C(=O)C(=O)Nc1ccc(Cl)cc1C)c1nc2ccc(C(=O)c3ccccc3)cc2nc1O` (centres undefined), the GI50 was 63.4 µM (inactive) in the experiment with DMS-273; > 100 µM (inactive) in the experiment on HOP-18; 36 µM (inactive) with DMS-114; > 100 µM (inactive) in the experiment on KM-20L2; > 100 µM (inactive) in the experiment on RXF 631.

`CCCCN1C(=O)NC(Cc2ccccc2)C1=O` (centres undefined): the GI50 with XF498, in the experiment on DMS-273, in the experiment with HOP-18, with DMS-114 and in the experiment with KM-20L2 was > 100 µM (inactive) each time.

For `O=c1[nH]c2c(O)cccc2c2cc3c(c(O)c12)OCO3` [NARCIPRIMINE], the GI50 was 15.6 µM (inactive) in the experiment on XF498; 18.7 µM (inactive) with DMS-273; 0.0524 µM (active) in the experiment with HOP-18; 19.1 µM (inactive) in the experiment on DMS-114; 12.8 µM (inactive) in the experiment with KM-20L2.

In the case of `C[C@]12CC[C@H](OC3CCCCO3)CC1=CC[C@@H]1C2CC[C@]2(C)/C(=N/O)CCC12` (some centres undefined), the GI50 in the experiment with XF498 is 40.6 µM (inactive); in the experiment on DMS-273, 17.5 µM (inactive); in the experiment with HOP-18 it was 16 µM (inactive); with DMS-114, 17.5 µM (inactive); with KM-20L2, 12.6 µM (inactive).

Regarding `CC(C)[C@@H](C(=O)N(C)[C@H](C(=O)N1CCC[C@H]1C(=O)OCc1ccccc1)C(C)C)N(C)C(=O)C(Cc1ccccc1)N(C)C(=O)[C@H](NC(=O)OC(C)(C)C)C(C)C` (some centres undefined) (Boc-[dV][ξNMeF][NMeV][NMeV]P-OBn), the GI50 was 13.4 µM (inactive) with XF498; > 31.6 µM (inactive) with DMS-273; > 72.6 µM (inactive) with HOP-18; 20.6 µM (inactive) with DMS-114; > 31.6 µM (inactive) in the experiment on KM-20L2.

`O=C(CC(=O)c1ccccc1NC1=Cc2ccccc2C(=O)C1=O)C(=O)NC1=C(Cl)C(=O)c2ccccc2C1=O`: the GI50 was 2.49 µM (inactive) in the experiment with XF498; 3.76 µM (inactive) with BT-549; 2.34 µM (inactive) in the experiment with DMS-273; 1.68 µM (inactive) with DMS-114; 1.9 µM (inactive) in the experiment with Hs-578T; 9.77 µM (inactive) with KM-20L2. Further, the GI50 was 4.37 µM (inactive) with RXF 631 and 1.75 µM (inactive) in the experiment with MDA-N.

For the compound `CC(=O)c1ccc(NC(=O)C(=O)CC(=O)c2sc(-n3nc(-c4ccccc4)cc3-c3ccccc3)nc2C)cc1`, the GI50 with DMS-273, in the experiment with DMS-114, with KM-20L2 and with RXF 631 was > 100 µM (inactive) in each case.

As for `COC(=O)CCC(=O)Nc1cc(Cl)ccc1Cl`, the GI50 with XF498, with HOP-18, in the experiment on DMS-114 and in the experiment on KM-20L2 was > 100 µM (inactive) throughout.

Regarding `Cc1nc2nn(Cc3ccccc3)cc2c(=O)o1`, the GI50 in the experiment on XF498 is 74.5 µM (inactive); in the experiment on DMS-273, > 100 µM (inactive); in the experiment with DMS-114, > 100 µM (inactive); with KM-20L2, > 100 µM (inactive); in the experiment on RXF 631, > 100 µM (inactive).

Regarding `COc1nc(NC2OCC(OC(C)=O)C(OC(C)=O)C2OC(C)=O)c(/N=C(\C)C(C)=O)c(=O)n1C` (centres undefined), the GI50 with XF498, with DMS-273, with HOP-18, in the experiment with DMS-114, in the experiment on KM-20L2 and with RXF 631 was > 100 µM (inactive) throughout.

Regarding `O=C1c2ccccc2C(=O)C2C1C1C(=O)c3ccccc3C(=O)C21` (centres undefined), the GI50 with DMS-273 was > 100 µM (inactive); in the experiment on HOP-18, 8.69 µM (inactive); in the experiment on DMS-114 it was > 100 µM (inactive); with KM-20L2, > 100 µM (inactive); in the experiment on RXF 631 it was > 100 µM (inactive).

As to `CS(=O)(=O)OCCN(CCOS(C)(=O)=O)c1ccc(C=O)cc1`, the GI50 was 1.97 µM (inactive) in the experiment on XF498; 13 µM (inactive) in the experiment on BT-549; 0.314 µM (active) in the experiment with DMS-273; 9.16 µM (inactive) with HOP-18; 8.05 µM (inactive) with DMS-114; 14.3 µM (inactive) in the experiment with Hs-578T. For the same compound, the results for the GI50 with KM-20L2 and in the experiment on MDA-N were 3.28 µM (inactive) and 8.95 µM (inactive), respectively.

These data come from ChEMBL document CHEMBL1201862, “PubChem BioAssay data set” (2004).
